Where only a bound is given, the exact number is not on record here.

From patent publication US20230219969A1 (priority 2020, published 2023) come the findings set out here.

Test [1] deals with Rat cortical neurons. The test can be described thus: Neurite Outgrowth Assay (Procedure A). Type of test: cell-based. Particulars: 1 hour treatment at DIV 4, analyzed DIV 7. An excerpt: Neurite outgrowth assay. Changes in the pattern of neurite outgrowth have been implicated in neurodegenerative disorders as well as traumatic injuries. The discovery of new compounds that can positively affect neuritogenesis are important for developing new therapeutics for neurological diseases. Measurement of neurite outgrowth of rat cortical neurons using an automated image-based assay is used to determine the neuroplastic effects of the compounds provided herein. In some embodiments, a compound provided herein increases the pattern of neurite outgrowth. In some embodiments, a compound provided herein increases neurite average length compared to a control. In some embodiments, a compound provided herein increases neurite branch points compared to a control. In some embodiments, a compound provided herein increases neurite average length and neurite branch points compared to a control.
In some embodiments, the plastogenic potential of compounds provided herein is assessed by measuring the changes in neurite development. In some embodiments, the plastogenic potential (as measured by Neurite Outgrowth Procedure A) of the compounds is shown in Table 10.
Neurite Outgrowth Assay (Procedure A). Rat cortical neurons (20,000 cells/well) were freshly isolated from embryonic day 18 rats and cultured in Neurobasal Medium (+B27). The cultured cells were plated in 96 well-plates (avoiding external wells). At DIV 4, the neurons were treated with compound or control (10 μM) for 1 hour followed by complete washout of the compound. At DIV 7, the neurons were analyzed. The experiments were performed in triplicate. Neurite outgrowth was measured analyzing the following parameters: Number of Cell Bodies, total neurite length (pixels), Root Count, Segments, Extremities Count and node points. Changes in the pattern of neurite outgrowth of the neurons were analyzed by immunocytochemistry against […]. Pictures were acquired by the CellInsight CX7 from Thermo Fisher and analyzed using its software. Results generated in the equipment were maximum neurite length, extremity count, root count, dendrite branch points, and total neurite length. The results were compared the percent of DMSO control, representing the percentage of outgrowth compare to vehicle control in neuronal outgrowth.

The subject of test [2] is Rat cortical neurons. The test can be described thus: Neurite Outgrowth in Primary Neuronal Cultures Assay (Procedure B). Particulars: 72 h, percent of DMSO control at 10 μM or less. On the set-up: key: A: Statistically significant mean increase as a percent of DMSO control at 10 μM or less; B: No statistically significant mean increase as a percent of DMSO control at 10 μM or less. The class given is cell-based. From the text:
Neurite Outgrowth in Primary Neuronal Cultures Assay (Procedure B). Changes in the pattern of neurite outgrowth have been implicated in psychiatric and neurodegenerative disorders as well as traumatic injuries. The discovery of new compounds that can positively affect neuritogenesis are important for developing new therapeutics for neurological diseases. Measurement of neurite outgrowth of rat cortical neurons using an automated image-based assay was used to determine the neuroplastic effects of the compounds of the present invention. The neurite outgrowth assay was performed at Neurofit SAS (France) as described below.
Pregnant Wistar rats (Janvier; France) were used for the study. They were delivered 6 days before their use. Upon arrival at Neurofit animal facility, they were housed one per cage and maintained in a room with controlled temperature (21-22° C.) and a reversed light-dark cycle (12 h/12 h; lights on: 17:30-05:30; lights off: 05:30-17:30) with food and water available ad libitum.
Female Wistar rats of 17 days gestation were killed by cervical dislocation and the fetuses were removed from the uterus. Their brains were placed in ice-cold medium of Leibovitz (L15, Gibco, Fisher bioblock, France). Cortices were dissected and meninges were carefully removed. The cortical neurons were dissociated by trypsinization for 30 min at 37° C. (trypsin-EDTA, Gibco) in presence of 0.1 mg/ml DNAse I (Roche, France). The reaction was stopped by addition of Dulbecco's Modified Eagle Medium (DMEM; Gibco) with 10% of fetal bovine serum (FBS; Gibco). The suspension was triturated with a 10-ml pipette and using a needle syringe 21G and centrifuged at 350×g for 10 min at room temperature. The pellet of dissociated cells was resuspended in a medium consisting of Neurobasal (Gibco) supplemented with 2% B27 supplement (Gibco), 0.5 mM L-Glutamine (Gibco), an antibiotic-antimicotic mixture. Viable cells were counted in a Neubauer cytometer using the trypan blue exclusion test (Sigma). Cells were seeded at a density of 10000 cells per well in 96-well plate (Costar) precoated with poly-L-lysine. Test compound at different concentrations were added to the cultures. Donepezil (positive control) was tested at 250 nM.
After 72 h (3 days) of plating, cultures were fixed with paraformaldehyde in PBS (4%, Sigma) for 30 min at 4° C. Then, cells were successively permeabilized with 0.1% Triton X100 for 30 min, saturated with PBS containing 3% of BSA and were incubated 1 h with anti-beta III tubulin antibody (Sigma) at 1/10 000 in PBS containing 0.5% of BSA. Cells were washed three times with PBS containing 0.5% of BSA, and they were incubated 1 h with goat anti-mouse antibody coupled with AF488 (Invitrogen A11001) diluted at 1/1000 in PBS containing 0.5% of BSA. Finally, nuclei were staining with DAPI 1 mg/ml at 1/1000 in PBS containing 0.5% of BSA. After rinsing with PBS, the plate was filmed and neurite networks were examined and analyzed using High-Content Screening (CellInsight, Thermo Scientific). The average number of neurites per neuron and the average total length of neurites per neuron were the main parameters analyzed. Analysis of data was performed using analysis of variance (ANOVA). The Fisher's Protected Least Significant Difference test was used for multiple comparisons. A p value<0.05 was considered significant. The software used is StatView 5.0 from SAS Institut.
In some embodiments, a compound of the present invention increases the pattern of neurite outgrowth. In some embodiments, a compound of the present invention increases neurite average length compared to a control. In some embodiments, a compound of the present invention increases neurite branch points compared to a control.

Test [3] deals with T1, 5HT2A (Homo sapiens, UniProt P28223). In words: cell-based.
Protocol: Cell lines were expanded from freezer stocks according to standard procedures. Cells were seeded in a total volume of 20 μL into black-walled, clear-bottom, Poly-D-lysine coated 384-well microplates and incubated at 37° C. for the appropriate time prior to testing. Assays were performed in 1× Dye Loading Buffer consisting of 1× Dye, 1× Additive A and 2.5 mM Probenecid in HBSS/20 mM Hepes. Probenicid was prepared fresh. Cells were loaded with dye prior to testing. Media was aspirated from cells and replaced with 20 μL Dye Loading Buffer. Cells are incubated for 30-60 minutes at 37° C.
For agonist determination, cells were incubated with sample to induce response. After dye loading, cells were removed from the incubator and 10 μL HBSS/20 mM Hepes was added. […] Cells were incubated for 30 minutes at room temperature in the dark to equilibrate plate temperature. Intermediate dilution of sample stocks was performed to generate 4× sample in assay buffer. Compound agonist activity was measured on a FLIPR Tetra (MDS). Calcium mobilization is monitored for 2 minutes and 10 μL 4× sample in HBSS/20 mM Hepes was added to the cells 5 seconds into the assay.
Compound activity was analyzed using CBIS data analysis suite (ChemInnovation, CA). For agonist mode assays, percentage activity was calculated using the following formula:
% Activity=100%×(mean RFU of test sample−mean RFU of vehicle control)/(mean MAX RFU control ligand −mean RFU of vehicle control).
Test [4] concerns the target T1, 5HT2A. The test can be described thus: Serotonin 5-HT2A in vitro cellular IPOne agonism assay. Type of test: cell-based. On the set-up: host or cells: CHO-K1. Particulars: CHO-K1 cells, IPOne HTRF; read-out: 5-HT2A IPOne Agonism Activity. How it is done:
Serotonin 5-HT2A In Vitro Cellular IPOne Agonism Assay. The 5-HT2A IPOne HTRF assay was performed at Epics Therapeutics S.A. (Belgium, FAST-0505I) using conventional methods. Briefly, CHO-K1 cells expressing human recombinant 5-HT2A receptor grown to mid-log phase in culture media without antibiotics were detached with PBS-EDTA, centrifuged, and resuspended in medium without antibiotics buffer. 20,000 cells are distributed in a 96 well plate and incubated overnight at 37° C. with 5% CO2.
For agonist testing, the medium is removed and 20 μl of assay buffer plus 20 μl of test compound or reference agonist are added in each well. The plate is incubated for 60 min. at 37° C. with 5% CO2.
After addition of the lysis buffer containing IP1-d2 and anti-IP1 cryptate detection reagents, plates are incubated 1-hour at room temperature, and fluorescence ratios are measured according to the manufacturer specification, with the HTRF kit.
(§1) The compounds provided herein were tested in the Serotonin 5-HT2A and 5-HT2C in vitro radioligand binding and cellular IPOne agonism assays. The binding and agonism functional potencies of several compound provided herein compounds (as indicated by their IC50s or EC50s) are shown in Table 11.
For orientation: Time-resolved FRET reads energy transfer from a long-lived donor to a nearby acceptor.

The target of test [5] is T1, 5HT2A. The test can be described thus: Serotonin 5-HT2A in vitro radioligand binding competition assay ([3H]-DOI). On the set-up: purchased Epics Therapeutics S.A. (Belgium) FAST-0505B. Particulars: [3H]-DOI competition, membrane extracts; read-out: 5-HT2A Radioligand Binding Activity. How it is done: Serotonin 5-HT2A In Vitro Radioligand Binding Competition Assay. The 5-HT2A radioligand binding competition assay was performed at Epics Therapeutics S.A. (Belgium, FAST-0505B) using conventional methods. Briefly, competition binding is performed in duplicate in the wells of a 96 well plate (Master Block, Greiner, 786201) containing binding buffer (optimized for each receptor), membrane extracts (amount of protein/well optimized for each receptor), radiotracer [^3H]-DOI (final concentration optimized for each receptor) and test compound. Nonspecific binding is determined by co-incubation with 200-fold excess of cold competitor. The samples are incubated in a final volume of 0.1 ml at a temperature and for a duration optimized for each receptor and then filtered over filter plates. Filters are washed six times with 0.5 ml of ice-cold washing buffer (optimized for each receptor) and 50 μl of Microscint 20 (Packard) are added in each well. The plates are incubated 15 min on an orbital shaker and then counted with a TopCount™ for 1 min/well.
as §1

Test [6] deals with 5HT2A. Type of test: cell-based. The conditions noted are these: result in words.
Another test concerns mice. The test can be described thus: Head-twitch response (HTR) in mice. Type of test: in vivo. The conditions noted are these: hallucinogenic potential.

T1 sequence (P28223 whole entry): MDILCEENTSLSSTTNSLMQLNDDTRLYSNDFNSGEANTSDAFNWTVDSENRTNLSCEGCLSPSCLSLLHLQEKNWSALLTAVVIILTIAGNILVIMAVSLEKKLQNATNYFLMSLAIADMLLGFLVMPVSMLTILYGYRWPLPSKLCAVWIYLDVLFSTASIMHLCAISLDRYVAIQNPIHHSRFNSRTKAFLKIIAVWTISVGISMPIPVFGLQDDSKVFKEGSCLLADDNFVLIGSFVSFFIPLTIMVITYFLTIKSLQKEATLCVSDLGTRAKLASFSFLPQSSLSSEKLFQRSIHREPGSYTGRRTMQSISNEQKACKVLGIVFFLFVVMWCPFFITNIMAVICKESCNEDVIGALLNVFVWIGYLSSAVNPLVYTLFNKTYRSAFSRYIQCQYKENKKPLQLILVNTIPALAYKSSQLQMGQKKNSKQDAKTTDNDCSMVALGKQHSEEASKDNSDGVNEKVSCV

In the case of `COc1ccc2c(ccn2CCN(C)C)n1` [Example 3, 2-(5-methoxy-1H-pyrrolo[3,2-b]pyridin-1-yl)-N,N-dimethylethan-1-amine], in the test with Rat cortical neurons [1], the “Neurite Average Length @ 10 μM” value was “B (100%-200% vehicle)” and the “Neurite Branch Points: @ 10 μM” value is listed as “A (>200% vehicle)”. Moreover, in the test with Rat cortical neurons [2], the “Increase in Neurite Length” value is “A” and the “Increase in Neurite Number” value is on record as “B”. This compound showed an EC50 at 5HT2A [3] of more than 110 µM. In addition, on 5HT2A [4], the EC50 is more than 10 µM. Moreover, at 5HT2A [5], the IC50 lay in the range of 0.101 to 1 µM.

As to `COc1ccc2[nH]cc(CCN(C)C)c2c1` [Example 5-MeO-DMT], the “activation of 5HT2A sensor assay in agonist mode” value (“activation of 5HT2A sensor assay” below) with 5HT2A [6] is listed as “activate the 5HT2A sensor assay in agonist mode”. The “head-twitch response (HTR)” value with mice is given as “produces a robust, dose-dependent head-twitch response”.

Take `CN(C)CCn1ccc2cnccc21` [Example 7, N,N-dimethyl-2-(1H-pyrrolo[3,2-c]pyridin-1-yl)ethan-1-amine]: in the test on Rat cortical neurons [1], the “Neurite Average Length @ 10 μM” value is given as “B (100%-200% vehicle)” and the “Neurite Branch Points: @ 10 μM” value is listed as “A (>200% vehicle)”. Moreover, in the test with Rat cortical neurons [2], the “Increase in Neurite Length” value is reported as “A” and the “Increase in Neurite Number” value is on record as “B”. At 5HT2A [3], this compound had an EC50 of more than 110 µM. At 5HT2A [4], the EC50 is more than 10 µM. In addition, the IC50 on 5HT2A [5] is more than 10 µM.

Turning to `COc1ccc2c(c1)CCN2CCN(C)C` [Example 8, 2-(5-methoxyindolin-1-yl)-N,N-dimethylethan-1-amine], in the test with Rat cortical neurons [1], the “Neurite Average Length @ 10 μM” value is reported as “B (100%-200% vehicle)” and the “Neurite Branch Points: @ 10 μM” value is reported as “A (>200% vehicle)”. Moreover, in the test on Rat cortical neurons [2], the “Increase in Neurite Length” value was “A” and the “Increase in Neurite Number” value is listed as “B”. The EC50 at 5HT2A [3] was more than 110 µM. Moreover, the EC50 on 5HT2A [4] is more than 10 µM. At 5HT2A [5], the IC50 is more than 10 µM.

Regarding `CNC(C)Cc1ccc2c(c1)OCO2` [L-MDMA], the “activation of 5HT2A sensor assay” value in the test with 5HT2A [6] is on record as “do not activate the 5HT2A sensor assay in agonist mode”.

In the case of `CN(C)CCn1ccc2cncnc21` [Example 6, N,N-dimethyl-2-(7H-pyrrolo[2,3-d]pyrimidin-7-yl)ethan-1-amine], in the test with Rat cortical neurons [1], the “Neurite Average Length @ 10 μM” value is listed as “A (>200% vehicle)” and the “Neurite Branch Points: @ 10 μM” value is listed as “A (>200% vehicle)”. For the same compound, in the test on Rat cortical neurons [2], the “Increase in Neurite Length” value is reported as “B” and the “Increase in Neurite Number” value was “B”. The compound further showed an EC50 on 5HT2A [3] of more than 110 µM. The EC50 at 5HT2A [4] was more than 10 µM. On 5HT2A [5], the IC50 is 1 to 10 µM.

On to `CCN(CC)C(=O)[C@@H]1C=C2c3cccc4[nH]c(Br)c(c34)C[C@H]2N(C)C1` [BOL148], for which the “activation of 5HT2A sensor assay” value in the test with 5HT2A [6] is given as “do not activate the 5HT2A sensor assay in agonist mode”.

On to `CCN(CC)C(=O)[C@@H]1C=C2c3cccc4[nH]cc(c34)C[C@H]2N(C)C1` [LSD], for which the “activation of 5HT2A sensor assay” value in the test with 5HT2A [6] was “activate the 5HT2A sensor assay in agonist mode”.

Turning to `COc1cnc2c(ccn2CCN(C)C)c1` [Example 5, 2-(5-methoxy-1H-pyrrolo[2,3-b]pyridin-1-yl)-N,N-dimethylethan-1-amine], in the test with Rat cortical neurons [1], the “Neurite Average Length @ 10 μM” value is “B (100%-200% vehicle)” and the “Neurite Branch Points: @ 10 μM” value is listed as “C (<100% vehicle)”. For the same compound, in the test on Rat cortical neurons [2], the “Increase in Neurite Length” value was “B” and the “Increase in Neurite Number” value was “B”. The EC50 at 5HT2A [3] was more than 110 µM. Further, the EC50 at 5HT2A [4] is more than 10 µM. In addition, the IC50 on 5HT2A [5] lay within 0.101 to 1 µM.

Take `CN[C@H](C)Cc1ccc2c(c1)OCO2` [R-MDMA]: in the test with 5HT2A [6], the “activation of 5HT2A sensor assay” value was “do not activate the 5HT2A sensor assay in agonist mode”.

`COc1cc2ccn(CCN(C)C)c2cn1` [Example 4, 2-(5-methoxy-1H-pyrrolo[2,3-c]pyridin-1-yl)-N,N-dimethylethan-1-amine]: in the test with Rat cortical neurons [1], the “Neurite Average Length @ 10 μM” value is “B (100%-200% vehicle)” and the “Neurite Branch Points: @ 10 μM” value is recorded as “B (100%-200% vehicle)”. In the test with Rat cortical neurons [2], the “Increase in Neurite Length” value is “A” and the “Increase in Neurite Number” value is listed as “A”. On 5HT2A [3], this compound had an EC50 of more than 110 µM. Besides, at 5HT2A [4], the EC50 is more than 10 µM. Moreover, the IC50 on 5HT2A [5] was 1 to 10 µM.

As to `CCN(CC)CCc1c[nH]c2cc(F)ccc12` [Example 6-F-DET], the “activation of 5HT2A sensor assay” value with 5HT2A [6] is “do not activate the 5HT2A sensor assay in agonist mode”.

In the case of `CN(C)CCc1c[nH]c2ccccc12` [DMT, N,N-dimethyltryptamine], the “activation of 5HT2A sensor assay” value in the test on 5HT2A [6] is “activate the 5HT2A sensor assay in agonist mode”.
